ChEMBL document CHEMBL2412992, “Fluorescent ligands for adenosine receptors” (Bioorg Med Chem Lett, 2013)
Each block holds one compound with its values, some of them ahead of it. Calls of active or inactive are those of the source. No cut-off for these calls is given here.

Experiments:
[1] = target: T1, Adenosine receptor A1 (Homo sapiens) (UniProt P30542); assay: Displacement of [3H]R-PIA from human adenosine A1 receptor expressed in CHO cells at 10 uM after 60 mins by […] analysis relative to control; type: cell-based
T1 sequence (whole entry): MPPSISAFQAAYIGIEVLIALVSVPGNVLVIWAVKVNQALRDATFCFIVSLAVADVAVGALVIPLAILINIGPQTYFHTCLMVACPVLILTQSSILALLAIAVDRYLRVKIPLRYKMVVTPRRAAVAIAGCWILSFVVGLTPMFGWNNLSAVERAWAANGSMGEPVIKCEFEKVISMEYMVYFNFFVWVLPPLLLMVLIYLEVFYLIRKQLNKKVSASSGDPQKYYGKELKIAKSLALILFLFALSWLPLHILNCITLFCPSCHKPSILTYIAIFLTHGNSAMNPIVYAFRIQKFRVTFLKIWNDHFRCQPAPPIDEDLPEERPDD

Adenosine receptor A2a [2] = target: T2, Adenosine receptor A2a (Homo sapiens, UniProt P29274); assay: Displacement of [3H]CGS21680 from human adenosine A2A receptor expressed in HEK293 cells after 60 mins by […] analysis; type: cell-based
Adenosine receptor A3 [3] = target: T3, Adenosine receptor A3 (Homo sapiens, UniProt P0DMS8); type: cell-based, CHO
T3 sequence (P0DMS8 whole entry): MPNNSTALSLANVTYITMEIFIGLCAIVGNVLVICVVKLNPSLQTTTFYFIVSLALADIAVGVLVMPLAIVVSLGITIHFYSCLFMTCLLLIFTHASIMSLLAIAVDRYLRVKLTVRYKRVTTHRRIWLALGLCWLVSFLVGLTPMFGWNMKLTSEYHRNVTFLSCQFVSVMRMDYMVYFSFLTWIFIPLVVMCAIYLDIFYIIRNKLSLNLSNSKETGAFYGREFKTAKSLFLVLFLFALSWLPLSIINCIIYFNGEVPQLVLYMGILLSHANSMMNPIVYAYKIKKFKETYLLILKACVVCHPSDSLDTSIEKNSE

Adenosine receptor A3 [4] = target: T3, Adenosine receptor A3; assay: biochemical
Description: (§1) Displacement of [125I]I-AB-MECA from human adenosine A3 receptor expressed in CHO cells after 90 mins by gamma counting analysis

Adenosine receptor A3 [5] = target: T3, Adenosine receptor A3
Description: Competitive binding affinity to human adenosine A3 receptor expressed in CHO cells after 90 mins by flow cytometric analysis in presence of MRS5449

[6] = target: T1, Adenosine receptor A1 (Homo sapiens); assay: Displacement of [3H]DPCPX from human adenosine A1 receptor expressed in CHO cells up to 0.1 mM after 2 hrs by scintillation counting analysis; type: cell-based
Adenosine receptor A1 [7] = target: T4, Adenosine receptor A1 (Homo sapiens, UniProt P30542); assay: Antagonist activity at human adenosine A1 receptor expressed in CHO cells coexpressing cAMP response element assessed as inhibition of agonist-induced response by SPAP reporter gene assay in presence of forskolin; type: functional, cell-based
T4 sequence (P30542 whole entry): T1 sequence (whole entry)

Adenosine receptor A2a [8] = target: T2, Adenosine receptor A2a; assay: Displacement of [3H]CGS21680 from adenosine A2A receptor in human striatal membranes; type: cell membranes, Striatum, Membrane
Adenosine receptor A3 [9] = target: T3, Adenosine receptor A3; type: cell-based, CHO; remark: listed apart in the source
Adenosine receptor A1 [10] = target: T4, Adenosine receptor A1; assay: Displacement of [3H]DPCPX from adenosine A1 receptor in human cortical membranes; type: cell membranes
Adenosine receptor A3 [11] = target: T3, Adenosine receptor A3; remark: listed apart in the source
Description: as §1

Adenosine receptor A1 [12] = target: T5, Adenosine receptor A1 (Bos taurus, UniProt P28190); assay: Displacement of [3H]ADAC from adenosine A1 receptor in bovine cerebral cortical membranes after 120 mins; type: cell membranes
T5 sequence (P28190 whole entry): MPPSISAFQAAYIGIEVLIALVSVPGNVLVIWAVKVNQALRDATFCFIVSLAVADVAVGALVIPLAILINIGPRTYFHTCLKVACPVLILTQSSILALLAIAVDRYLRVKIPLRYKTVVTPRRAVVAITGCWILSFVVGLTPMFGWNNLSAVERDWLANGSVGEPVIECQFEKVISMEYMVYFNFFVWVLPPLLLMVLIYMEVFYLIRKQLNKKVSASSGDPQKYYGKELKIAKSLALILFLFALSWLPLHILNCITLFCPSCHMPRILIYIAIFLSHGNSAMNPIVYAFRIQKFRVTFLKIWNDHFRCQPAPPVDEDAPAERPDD

Adenosine receptor A1 [13] = target: T6, Adenosine receptor A1 (Rattus norvegicus, UniProt P25099); assay: Displacement of [3H]ADAC from adenosine A1 receptor in rat cerebral cortical membranes after 120 mins; type: cell membranes, Membrane
T6 sequence (P25099 whole entry): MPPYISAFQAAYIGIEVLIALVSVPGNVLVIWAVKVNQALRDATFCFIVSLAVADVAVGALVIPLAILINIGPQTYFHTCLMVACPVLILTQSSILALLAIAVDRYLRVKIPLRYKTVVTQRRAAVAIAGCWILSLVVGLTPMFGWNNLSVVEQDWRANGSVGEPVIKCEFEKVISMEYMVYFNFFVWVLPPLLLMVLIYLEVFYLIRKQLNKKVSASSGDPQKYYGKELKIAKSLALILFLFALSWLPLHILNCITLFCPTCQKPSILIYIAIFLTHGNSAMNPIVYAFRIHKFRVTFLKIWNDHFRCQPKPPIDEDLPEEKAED

Adenosine receptor A1 [14] = target: T4, Adenosine receptor A1; assay: Displacement of [3H]R-PIA from human adenosine A1 receptor expressed in CHO cells after 60 mins by […] analysis; type: cell-based

T2 sequence (P29274 whole entry): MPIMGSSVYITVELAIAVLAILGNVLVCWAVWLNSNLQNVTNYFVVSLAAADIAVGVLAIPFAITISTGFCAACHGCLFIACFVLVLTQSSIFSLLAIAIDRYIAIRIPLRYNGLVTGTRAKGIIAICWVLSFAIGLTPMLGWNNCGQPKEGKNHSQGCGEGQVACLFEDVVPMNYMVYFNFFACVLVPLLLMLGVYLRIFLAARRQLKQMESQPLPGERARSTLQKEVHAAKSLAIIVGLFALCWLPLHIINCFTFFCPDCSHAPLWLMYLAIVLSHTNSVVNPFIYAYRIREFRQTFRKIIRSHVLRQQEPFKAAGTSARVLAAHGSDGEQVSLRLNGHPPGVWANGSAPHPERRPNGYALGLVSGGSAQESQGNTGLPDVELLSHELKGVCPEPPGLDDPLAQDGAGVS

SMILES: Cn1cc2c(nc(NCCCCCNC(=S)Nc3ccc(C4c5ccc(O)cc5OC5=CC(=O)C=CC54)c(C(=O)O)c3)n3nc(-c4ccco4)nc23)n1 (centres undefined)
- inhibition [1]: 9%
- Ki (Adenosine receptor A2a [2]): 1780 nM
- Ki (Adenosine receptor A3 [3]): 5620 nM

SMILES: CC[C@@H]1CN2C(=O)N(C)c3nc(-c4cc(Cl)cc(Cl)c4Cl)[nH]c3C2=N1
- Ki (Adenosine receptor A3 [4]): 0.441 nM
- Ki (Adenosine receptor A3 [5]): 9.54 nM

SMILES: Cn1cc2c(nc(NCCCCNC(=S)Nc3ccc(C4c5ccc(O)cc5OC5=CC(=O)C=CC54)c(C(=O)O)c3)n3nc(-c4ccco4)nc23)n1 (centres undefined)
- inhibition [1]: 7%
- Ki (Adenosine receptor A2a [2]): 468 nM
- Ki (Adenosine receptor A3 [3]): 724 nM

SMILES: Nc1nc(NCCc2ccc(O)cc2)nc2nc(-c3ccco3)nn12 [ZM-241385]
- Ki (Adenosine receptor A3 [11]): 743 nM

SMILES: O=C1C=CC2C(=C1)Oc1cc(O)ccc1C2c1ccc(NC(=S)NCCNC(=O)Cc2ccc(NC(=O)Cc3ccc(Nc4ncnc5c4ncn5[C@@H]4O[C@H](CO)[C@@H](O)[C@H]4O)cc3)cc2)cc1C(=O)O (some centres undefined)
- Ki (Adenosine receptor A1 [12]): 2.88 nM
- Ki (Adenosine receptor A1 [13]): 7.24 nM

SMILES: CCCN1C(=O)C2NC(c3ccc(OCC(=O)NCCNC(=O)NCC(=O)NCC(=O)NCC(=S)c4ccc(C5c6ccc(O)cc6OC6=CC(=O)C=CC65)c(C(=O)O)c4)cc3)=NC2N(CCC)C1=O (centres undefined)
- Ki (Adenosine receptor A1 [12]): 17 nM
- Ki (Adenosine receptor A1 [13]): 97.7 nM

SMILES: CCCn1c(=O)c2[nH]c(-c3ccc(OCC(=O)NCCNC(=S)Nc4ccc(C5c6ccc(O)cc6OC6=CC(=O)C=CC65)c(C(=O)O)c4)cc3)nc2n(CCC)c1=O (centres undefined)
- Ki (Adenosine receptor A1 [12]): 9.33 nM
- Ki (Adenosine receptor A1 [13]): 126 nM

SMILES: Cn1cc2c(nc(NNC(=S)Nc3ccc(C4c5ccc(O)cc5OC5=CC(=O)C=CC54)c(C(=O)O)c3)n3nc(-c4ccco4)nc23)n1 (centres undefined)
- Ki (Adenosine receptor A1 [14]): 9550 nM
- Ki (Adenosine receptor A2a [2]): 933 nM
- Ki (Adenosine receptor A3 [3]): 794 nM

Now from value to compound:

- Activity [6]: inactive
SMILES: CCNC(=O)[C@H]1O[C@@H](n2cnc3c(NCCCCNC(=O)CCC4=[N+]5C(=Cc6c(C)cc(C)n6[B-]5(F)F)C=C4)ncnc32)[C@H](O)[C@@H]1O

- Kd (Adenosine receptor A1 [7]): 14.5 nM
SMILES: CCNC(=O)[C@H]1O[C@@H](n2cnc3c(NCCNC(=O)COc4ccc(/C=C/C5=[N+]6C(=Cc7ccc(-c8cccs8)n7[B-]6(F)F)C=C5)cc4)ncnc32)[C@H](O)[C@@H]1O

- Ki (Adenosine receptor A2a [8]): 5130 nM
- Ki (Adenosine receptor A3 [9]): 7.41 nM
- Ki (Adenosine receptor A1 [10]): 3550 nM
SMILES: CCNC(=O)[C@H]1O[C@@H](n2cnc3c(NCCCCCCCCNc4ccc([N+](=O)[O-])c5nonc45)ncnc32)[C@H](O)[C@@H]1O

- Ki (Adenosine receptor A2a [8]): 6170 nM
- Ki (Adenosine receptor A3 [9]): 28.2 nM
- Ki (Adenosine receptor A1 [10]): 6460 nM
SMILES: CCNC(=O)[C@H]1O[C@@H](n2cnc3c(NCCCCCCCCCCNc4ccc([N+](=O)[O-])c5nonc45)ncnc32)[C@H](O)[C@@H]1O

- Ki (Adenosine receptor A2a [8]): 6170 nM
- Ki (Adenosine receptor A3 [9]): 24 nM
- Ki (Adenosine receptor A1 [10]): > 10000 nM
SMILES: CCNC(=O)[C@H]1O[C@@H](n2cnc3c(NCCCCCCNc4ccc([N+](=O)[O-])c5nonc45)ncnc32)[C@H](O)[C@@H]1O

- Ki (Adenosine receptor A2a [8]): > 10000 nM
- Ki (Adenosine receptor A3 [9]): 389 nM
- Ki (Adenosine receptor A1 [10]): > 10000 nM
SMILES: CCNC(=O)[C@H]1O[C@@H](n2cnc3c(NCCCCNc4ccc([N+](=O)[O-])c5nonc45)ncnc32)[C@H](O)[C@@H]1O

- Activity [6]: inactive
SMILES: CCNC(=O)[C@H]1O[C@@H](n2cnc3c(NCCCCNC(=O)CCCCCCCNS(=O)(=O)c4cccc5c(N(C)C)cccc45)ncnc32)[C@H](O)[C@@H]1O

- Kd (Adenosine receptor A1 [7]): 16.2 nM
SMILES: CCNC(=O)[C@H]1O[C@@H](n2cnc3c(NCCCCNC(=O)COc4ccc(/C=C/C5=[N+]6C(=Cc7ccc(-c8cccs8)n7[B-]6(F)F)C=C5)cc4)ncnc32)[C@H](O)[C@@H]1O
